Results published in the supplement of paper PMC10307832.

Tests used:
Test in all cases: relative viability (nuclei count vs DMSO), 5 days (fraction); higher = more cells survive
NCI-H441 = test system: NCI-H441
Method in brief: (§1)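 Medians of duplicate plates are given as relative viability. That measure is the nuclei count in treated wells divided by the count in vehicle wells. Counts were taken on 4× images of lung cancer cell lines in 1536-well plates, 5 days after pin-tool dosing the day after seeding with one drug alone or a fixed anchor-drug dose plus five library-drug doses (not always all listed) in √10 steps.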

NCI-H838 = test system: NCI-H838
Method in brief: as §1

NCI-H3122 = test system: NCI-H3122
Method in brief: as §1

COR-L23 = test system: COR-L23
Method in brief: as §1

NCI-H2170 = test system: NCI-H2170
Method in brief: as §1

LU99A = test system: LU99A
Method in brief: as §1

HARA = test system: HARA
Method in brief: as §1

COR-L 105 = test system: COR-L 105
Method in brief: as §1

NCI-H661 = test system: NCI-H661
Method in brief: as §1

LK-2 = test system: LK-2
Method in brief: as §1

NCI-H1650 = test system: NCI-H1650
Method in brief: as §1

BEN = test system: BEN
Method in brief: as §1

NCI-H727 = test system: NCI-H727
Method in brief: as §1

NCI-H2009 = test system: NCI-H2009
Method in brief: as §1

ABC-1 = test system: ABC-1
Method in brief: as §1

NCI-H1437 = test system: NCI-H1437
Method in brief: as §1

SW 900 = test system: SW 900
Method in brief: as §1

HCC-366 = test system: HCC-366
Method in brief: as §1

PC-14 = test system: PC-14
Method in brief: as §1

NCI-H1666 = test system: NCI-H1666
Method in brief: as §1

201T = test system: 201T
Method in brief: as §1

EKVX = test system: EKVX
Method in brief: as §1

SMILES: O=C(O)c1ccc(-c2c[nH]c3ncc(-c4ccccc4)cc23)cc1C1CCCC1 + Nc1ncn([C@H]2C[C@H](O)[C@@H](CO)O2)c(=O)n1 [Decitabine] (partner 2 µM)
- relative viability (NCI-H441; first compound 0.04 µM): 0.221
- relative viability (NCI-H441; first compound 0.1265 µM): 0.254
- relative viability (NCI-H441; first compound 0.4 µM): 0.251
- relative viability (NCI-H441; first compound 1.265 µM): 0.251
- relative viability (NCI-H838; first compound 0.04 µM): 0.45
- relative viability (NCI-H838; first compound 0.1265 µM): 0.475
- relative viability (NCI-H838; first compound 0.4 µM): 0.416
- relative viability (NCI-H838; first compound 1.265 µM): 0.357
- relative viability (NCI-H3122; first compound 0.04 µM): 0.423
- relative viability (NCI-H3122; first compound 0.1265 µM): 0.431
- relative viability (NCI-H3122; first compound 0.4 µM): 0.471
- relative viability (NCI-H3122; first compound 1.265 µM): 0.428
- relative viability (COR-L23; first compound 0.04 µM): 0.446
- relative viability (COR-L23; first compound 0.1265 µM): 0.414
- relative viability (COR-L23; first compound 0.4 µM): 0.365
- relative viability (COR-L23; first compound 1.265 µM): 0.327
- relative viability (NCI-H2170; first compound 0.04 µM): 0.459
- relative viability (NCI-H2170; first compound 0.1265 µM): 0.478
- relative viability (NCI-H2170; first compound 0.4 µM): 0.437
- relative viability (NCI-H2170; first compound 1.265 µM): 0.437
- relative viability (LU99A; first compound 0.04 µM): 0.88
- relative viability (LU99A; first compound 0.1265 µM): 0.837
- relative viability (LU99A; first compound 0.4 µM): 0.822
- relative viability (LU99A; first compound 1.265 µM): 0.576
- relative viability (HARA; first compound 0.04 µM): 0.372
- relative viability (HARA; first compound 0.1265 µM): 0.643
- relative viability (HARA; first compound 0.4 µM): 0.477
- relative viability (HARA; first compound 1.265 µM): 0.354
- relative viability (COR-L 105; first compound 0.04 µM): 0.68
- relative viability (COR-L 105; first compound 0.1265 µM): 0.62
- relative viability (COR-L 105; first compound 0.4 µM): 0.703
- relative viability (COR-L 105; first compound 1.265 µM): 0.72
- relative viability (NCI-H661; first compound 0.04 µM): 0.518
- relative viability (NCI-H661; first compound 0.1265 µM): 0.586
- relative viability (NCI-H661; first compound 0.4 µM): 0.534
- relative viability (NCI-H661; first compound 1.265 µM): 0.524
- relative viability (LK-2; first compound 0.04 µM): 0.253
- relative viability (LK-2; first compound 0.1265 µM): 0.327
- relative viability (LK-2; first compound 0.4 µM): 0.28
- relative viability (LK-2; first compound 1.265 µM): 0.333
- relative viability (NCI-H1650; first compound 0.04 µM): 0.409
- relative viability (NCI-H1650; first compound 0.1265 µM): 0.345
- relative viability (NCI-H1650; first compound 0.4 µM): 0.404
- relative viability (NCI-H1650; first compound 1.265 µM): 0.263
- relative viability (BEN; first compound 0.04 µM): 0.621
- relative viability (BEN; first compound 0.1265 µM): 0.901
- relative viability (BEN; first compound 0.4 µM): 0.692
- relative viability (BEN; first compound 1.265 µM): 0.585
- relative viability (NCI-H727; first compound 0.04 µM): 0.77
- relative viability (NCI-H727; first compound 0.1265 µM): 0.848
- relative viability (NCI-H727; first compound 0.4 µM): 0.818
- relative viability (NCI-H727; first compound 1.265 µM): 0.788
- relative viability (NCI-H2009; first compound 0.04 µM): 0.411
- relative viability (NCI-H2009; first compound 0.1265 µM): 0.415
- relative viability (NCI-H2009; first compound 0.4 µM): 0.398
- relative viability (NCI-H2009; first compound 1.265 µM): 0.347
- relative viability (ABC-1; first compound 0.04 µM): 1.1
- relative viability (ABC-1; first compound 0.1265 µM): 1.1
- relative viability (ABC-1; first compound 0.4 µM): 0.891
- relative viability (ABC-1; first compound 1.265 µM): 0.931
- relative viability (NCI-H1437; first compound 0.04 µM): 0.533
- relative viability (NCI-H1437; first compound 0.1265 µM): 0.572
- relative viability (NCI-H1437; first compound 0.4 µM): 0.517
- relative viability (NCI-H1437; first compound 1.265 µM): 0.336
- relative viability (SW 900; first compound 0.04 µM): 0.437
- relative viability (SW 900; first compound 0.1265 µM): 0.456
- relative viability (SW 900; first compound 0.4 µM): 0.38
- relative viability (SW 900; first compound 1.265 µM): 0.344
- relative viability (HCC-366; first compound 0.04 µM): 0.336
- relative viability (HCC-366; first compound 0.1265 µM): 0.342
- relative viability (HCC-366; first compound 0.4 µM): 0.363
- relative viability (HCC-366; first compound 1.265 µM): 0.3
- relative viability (PC-14; first compound 0.04 µM): 0.19
- relative viability (PC-14; first compound 0.1265 µM): 0.211
- relative viability (PC-14; first compound 0.4 µM): 0.213
- relative viability (PC-14; first compound 1.265 µM): 0.195
- relative viability (NCI-H1666; first compound 0.04 µM): 0.689
- relative viability (NCI-H1666; first compound 0.1265 µM): 0.805
- relative viability (NCI-H1666; first compound 0.4 µM): 0.693
- relative viability (NCI-H1666; first compound 1.265 µM): 0.613
- relative viability (201T; first compound 0.04 µM): 0.862
- relative viability (201T; first compound 0.1265 µM): 0.808
- relative viability (201T; first compound 0.4 µM): 0.805
- relative viability (201T; first compound 1.265 µM): 0.811
- relative viability (EKVX; first compound 0.04 µM): 0.341
- relative viability (EKVX; first compound 0.1265 µM): 0.362
- relative viability (EKVX; first compound 0.4 µM): 0.336
- relative viability (EKVX; first compound 1.265 µM): 0.368
